Results on 7 compounds are retold here after paper PMC10077545, “Exploration of Antiproliferative Activity and Apoptosis Induction of New Nickel(II) Complexes Encompassing Carbazole Ligands” (ACS Omega, 2023).

Series [1] deals with human cervical carcinoma (HeLa). Nature of the series: MTT assay, in vitro cell viability, HeLa. It counts as cell-based. Conditions: ± standard deviation. As for the experimental part: (§1) To study the ability of the prepared ligands and the synthesized complexes in retarding the growth of cancer cell, the MTT assay was performed with human cervical carcinoma (HeLa), human colon carcinoma (HT-29), and non-cancerous L929 (fibroblast) cell lines. As a reference, cisplatin is also examined with all the cell lines for an incubation period of 24 h and as stated in Table 1.
(§2) 2. Experimental Procedures […]
(§3) The cell lines HeLa, HT-29, and L929 were collected from ATCC and the stock cells were cultured in DMEM/ F12 enriched with 10% inactivated Fetal Bovine Serum (FBS), penicillin (100 IU/ml), streptomycin (100 µg/ml) in a humidified atmosphere of 5% carbon dioxide at 37 °C until confluent. The cells were dissociated with cell dissociating solution (0.2 % trypsin, 0.02 % EDTA, 0.05 % glucose in PBS). The viability of the cells have been checked and centrifuged. Further, 50,000 cells /well of […] was seeded in a 96 well plate and incubated for 24 hours at 37 °C, 5 % carbon dioxide incubator.
(§4) The monolayer cell culture has been trypsinized and the cell count was altered to […] using respective media comprising 10% FBS. 100 µL of the diluted cell suspension (50,000 cells/well) was added to each well of the 96 well microtiter plate. When a partial monolayer formed after 24 hours, the supernatant was swiped off and the monolayer has been washed with the medium. 100 µL of various concentrations of complexes have been added on to the partial monolayer in microtiter plates. Then, the […]
(§5) incubation, the test solutions in the wells have been discarded and 100 µL of MTT (5 mg/10 ml of MTT in PBS) was added to each well. The plates have been incubated for four hours at 37 °C in 5% carbon dioxide atmosphere. The supernatant has been removed and 100 µL of DMSO was applied to dissolve the formed formazan. The absorbance was recorded using a microplate reader at 590 nm. The % growth inhibition has been determined using the […]
(§6) Cell viability (%) = (Absorbance of each well/ Absorbance of control well) × 100 […]
(§7) Hoechst 33342 staining method
(§8) 5 × 10^5 HeLa cells have been incubated with IC50 concentration of the complex 4 for 24 hours in a 6-well culture plate and have been fixed with 4% paraformaldehyde followed by permeabilization with 0.1% Triton X-100. Cells were then stained with 50 μg /mL Hoechst 33342 for 30 min at ambient temperature. The cells undergoing apoptosis were observed and visualized by epifluorescence microscope (Carl Zeiss, Germany).
For orientation: Tetrazolium dyes change colour on reduction, which living cells bring about.

Series [2] concerns non-cancerous L929 (fibroblast) cell lines. Nature of the series: MTT assay, in vitro cell viability, L929. The class given is cell-based. Conditions: ± standard deviation. As for the experimental part:
as §1, §2, §3, §4, §5, §6, §7, §8

Series [3] deals with human colon carcinoma (HT-29). Briefly: MTT assay, in vitro cell viability, HT-29. It counts as cell-based. To be noted: ± standard deviation. As for the experimental part:
as §1, §2, §3, §4, §5, §6, §7, §8

A short description of series [4]: Partition coefficient (log P), shake-flask, n-octanol-water. It counts as physicochemical. The text has this:
The permeability of the drug molecules into a lipid cytomembrane is a prime initiative for designing drugs and its development. The main properties like absorption, transportation, and expulsion of the drugs take control over the chief pharmacokinetic properties. Accordingly, we resolve the permeability of all the complexes with the help of calculated log P values using a n-octanol–water system. Based on the solubility of the complexes in aqueous and organic phases, the log P values are determined.[22]−[24] […] Complexes 3 and 4 display higher permeability characters (log P value) due to the presence of halogen and electron-donating group, respectively. Additionally, the presence of the carbazole moiety in the complexes enhanced the lipophilicity.[25],[26]
2. Experimental Procedures
UV-visible time dependent spectral method has been used to examine the stability of the complexes. Complexes were dissolved in a minimum amount of 1% DMSO and then diluted with PBS buffer to 1×10−3 M concentration. The hydrolysis profiles of the complexes were monitored by their electronic spectra over 72 h.
Partition coefficients determination
The "shake-flask" technique was used to evaluate the lipophilicity of complexes 2 - 4 using octanol/water phase partitions. Double distilled water and analytical grade octanol (Sigma Aldrich) were used to produce octanol-saturated water and water-saturated octanol phases. Complexes 2−4 (1 mg/mL; ethanol/water) have been diluted to 2, 4, 6, 8, and 10 μg/mL in water and alternatively were diluted to 2, 4, 6, 8, and 10 μg/mL in octanol, respectively. Equal volumes (50/50) of the complexes in the proper concentrations […] have been shaken for 24 hours at ambient temperature. The organic and aqueous fractions have been separated and centrifuged when equilibrium was attained. Finally, UV-visible spectroscopy was used to determine the complex concentration in each phase. The concentration of the sample solution was used to calculate the partition coefficients (log P) by using the equation log P = log[(1−3)oct/(1−3)aq]. 4 […]

In series [5] the test system is HeLa cancer cells. Nature of the series: Mitochondrial membrane potential, JC-1 staining. The class given is cell-based, human. To be noted: IC50 concentration, 24 h. As for the experimental part: The mitochondrial dysfunction-mediated apoptosis was assayed via ROS generation. After the mitochondrial impairment, the mitochondrial membrane potential (MMP) is reduced and the same was examined using JC-1 fluorescence dye. The dye is used to assay the MMP to determine mitochondrial viability. Proapoptotic factors and other apoptotic inducing features were produced by mitochondria, which serves to be a significant role for apoptosis. […] In the control group (Figure 7A), JC-1 accumulates and produces a red fluorescence correlating to a high MMP.
(§9) Reactive Oxygen Species (ROS) Assay
(§10) To quantify the intracellular ROS, 5 × 10^5 HeLa cells have been seeded on a 6-well plate comprising cover slip and incubated overnight for attachment. […]
(§11) Culture cells on cover slips in 6‐well cell culture plates at a density around 5 x 10^5 cells/mL overnight in an incubator (5% carbon dioxide, 37 °C). […] The cells were immediately examined under a fluorescent microscope (Olympus, CKX-53, Japan), and the proportion of dead cells was calculated in at least three randomly chosen microscopic fields. […]
(§12) HeLa ells have been seeded in a 6-well plate (10^5 cells/well)) and cultured at 37 °C for 24 hours. […] Finally, apoptosis induction has been assessed using a flow cytometer (SYSMEX, Japan), and the data have been analyzed by Flow Jo software. […]

The subject of series [6] is HeLa cancer cells. Briefly: ROS detection (DCFH-DA). It counts as cell-based, human. Conditions: IC50 concentration, 24 h, control 20 %.
From the text: ROS, like hydrogen peroxide, superoxide anion, and hydroxyl radical, are produced on mitochondrial oxidative metabolism along with cell’s reaction toward cytokines and bacterial invasion. At low levels of ROS, it could participate in cell signaling. Whereas, at higher levels they might damage (DNA and RNA) and engage in apoptosis via mitochondrial dysfunction.[32] The quantity of ROS is detected with the help of oxidant fluorescent dye. The nonpolar dye DCFH-DA turned out to be deacetylated and transformed into DCFH (polar) by intracellular esterases. However, DCFH is not identified using a microscope. […]
as §10, §11, §12

Series [7] has as its system caspase-8. Nature of the series: Caspase activity assay, caspase-8 in HeLa cells. It counts as cell-based, human. Conditions: IC50 concentration, 12 and 24 h.
From the text: (§13) The apoptotic mode of cancer cell death was further substantiated by caspase activation by ELISA analysis. In eukaryotes, caspases(protease enzymes) play a significant role in induction, transduction, and amplification of intracellular apoptotic signals. Based on the amino acid composition, caspases are divided into three sub-families, namely, […], executioner, and mediator caspases.[37] Most importantly, the initiator and executioner caspases get involved in the apoptotic signaling cascade. Caspase-8 and -9 are the initiators of the extrinsic and intrinsic pathways of apoptosis, respectively. Both mechanisms converge in the activation of the executioner caspase-3.[38]
as §9, §10, §11
(§14) The caspase activity assay was determined by a chromogenic assay using caspase-3 (Calbiochem, Merck), caspase-8 and 9 (Chemicon International Inc.) colorimeter activity assay kits. […]

Series [8] has as its system caspase-9. Briefly: Caspase activity assay, caspase-9 in HeLa cells. The class given is cell-based, human. To be noted: IC50 concentration, 12 and 24 h.
From the text: as §13, §9, §10, §11, §14

Series [9] deals with caspase-3. Briefly: Caspase activity assay, caspase-3 in HeLa cells. Conditions: IC50 concentration, 12 and 24 h. The class given is cell-based, human.
From the text: as §13, §9, §10, §11, §14

Setting [10] is: 24 h incubation, read-out: IC50 HeLa 24 h.
Setting [11] is: 48 h incubation, read-out: IC50 HeLa 48 h.
The mark [12] stands for this setting: 24 h incubation, read-out: IC50 L929 24 h.
Setting [13] is: 48 h incubation, read-out: IC50 L929 48 h.
Setting [14] is: 24 h incubation, read-out: IC50 HT-29 24 h.
[15] abbreviates: 48 h incubation, read-out: IC50 HT-29 48 h.
Where [16] appears, read: Homo sapiens, HeLa, 24 h incubation, read-out: IC50 HeLa 24 h.
The mark [17] stands for this setting: Homo sapiens, HeLa, 48 h incubation, read-out: IC50 HeLa 48 h.
Where [18] appears, read: Mus musculus, L929, 24 h incubation, read-out: IC50 L929 24 h.
[19] abbreviates: Mus musculus, L929, 48 h incubation, read-out: IC50 L929 48 h.
The mark [20] stands for this setting: Homo sapiens, HT-29, 24 h incubation, read-out: IC50 HT-29 24 h.
Setting [21] is: Homo sapiens, HT-29, 48 h incubation, read-out: IC50 HT-29 48 h.
[22] abbreviates: n-octanol-water system, shake-flask, UV-visible.

Read-outs that look alike come from different tables or passages of the source. Where only a bound is given, the exact number is not on record here.

As a reminder, the IC50 is the midpoint of a concentration-inhibition curve. For `N.N.[Cl][Pt][Cl]` [cisplatin, reference compound], the IC50 came out at 28.04 ± 0.18 µM in series [1] (setting [10]); 12.4 ± 1.81 µM in series [1] (setting [11]); 146.5 ± 0.79 µM in [2] (setting [12]); 141.2 ± 0.37 µM in series [2] (setting [13]); 34.3 ± 1.45 µM in series [3] (setting [14]); 14.3 ± 1.57 µM in series [3] (setting [15]).

Consider `COc1ccc(C(=O)N/N=C2/CCCc3c2[nH]c2ccccc32)cc1` [L3], for which the IC50 is more than 100 µM in [1] (setting [16]); 73.4 ± 0.82 µM in series [1] (setting [17]); more than 100 µM in series [2] (setting [18]); more than 100 µM in series [2] (setting [19]); more than 100 µM in [3] (setting [20]); 81.7 ± 1.09 µM in [3] (setting [21]).

For orientation: log P means the decadic logarithm of the partition coefficient of the neutral form, usually between octanol and water. High values mean higher lipophilicity, low ones lower lipophilicity. On to `c1ccc(C(=NN=C2CCCc3c2[nH]c2ccccc32)[O][Ni][O]C(=NN=C2CCCc3c2[nH]c2ccccc32)c2ccccc2)cc1` [complex 2, [Ni(L1)2]], for which the IC50 stood at 49.3 ± 1.05 µM in [1] (setting [10]); 40.12 ± 0.09 µM in [1] (setting [11]); 248.1 ± 1.12 µM in series [2] (setting [12]); 236.3 ± 1.45 µM in series [2] (setting [13]); 68.59 ± 0.27 µM in [3] (setting [14]); 61.25 ± 0.47 µM in [3] (setting [15]). For the same compound, the “log P” value in [4] (setting [22]) turned out to be 0.86 ± 0.14.

Turning to `O=C(N/N=C1/CCCc2c1[nH]c1ccccc21)c1ccccc1` [L1], the IC50 in series [1] (setting [16]), in [1] (setting [17]), in series [2] (setting [18]), in series [2] (setting [19]), in [3] (setting [20]) and in series [3] (setting [21]) was more than 100 µM in each case.

As for `COc1ccc(C(=NN=C2CCCc3c2[nH]c2ccccc32)[O][Ni][O]C(=NN=C2CCCc3c2[nH]c2ccccc32)c2ccc(OC)cc2)cc1` [complex 4, [Ni(L3)2]], the IC50 in [1] (setting [10]) was found to be 43.39 ± 0.21 µM; in [1] (setting [11]), 28.2 ± 0.32 µM; in series [2] (setting [12]) it was 275.8 ± 0.35 µM; in [2] (setting [13]), 269.1 ± 1.1 µM; in series [3] (setting [14]) it was 57.42 ± 0.09 µM; in series [3] (setting [15]) it was 41.2 ± 1.28 µM. The “Mitochondrial membrane potential (JC-1 fluorescence)” value in series [5] was “decrease in MMP”. Besides, in series [4] (setting [22]), the “log P” value is on record as 1.95 ± 0.05. The “% of fluorescence intensity, reactive oxygen species (DCFH-DA)” value in [6] came out at 80%. Besides, the “Expression of caspase-8” value in series [7] is given as “efficiently upregulated”. The “Caspase-9 activity versus control cells” value in series [8] was “time-dependent increase”. Besides, the “Caspase-3 activity versus control cells” value in series [9] is listed as “time-dependent increase”.

As for `Clc1ccc(C(=NN=C2CCCc3c2[nH]c2ccccc32)[O][Ni][O]C(=NN=C2CCCc3c2[nH]c2ccccc32)c2ccc(Cl)cc2)cc1` [complex 3, [Ni(L2)2]], the IC50 was determined as 45.4 ± 0.72 µM in [1] (setting [10]); 32.8 ± 1.19 µM in [1] (setting [11]); 253.1 ± 0.61 µM in series [2] (setting [12]); 247.4 ± 0.28 µM in [2] (setting [13]); 59.2 ± 0.64 µM in series [3] (setting [14]); 50.8 ± 1.11 µM in series [3] (setting [15]). Also, in series [4], the “log P” value is recorded as 1.57 ± 0.12.

For `O=C(N/N=C1/CCCc2c1[nH]c1ccccc21)c1ccc(Cl)cc1` [L2], the IC50 was more than 100 µM in series [1] (setting [16]); 86.2 ± 1.12 µM in series [1] (setting [17]); more than 100 µM in series [2] (setting [18]); more than 100 µM in [2] (setting [19]); more than 100 µM in series [3] (setting [20]); 94 ± 1.27 µM in series [3] (setting [21]).
